In brackets after ≈: the same amount, converted by molar mass.
Key:
Experiment in all cases: Minimum inhibitory concentration, standard method of the Japan Society of Chemotherapy
Format in all cases: cell-based
P. aeruginosa (IFO 3445) = conditions: Pseudomonas aeruginosa, IFO3445
Protocol: (§1) With respect to certain representative compounds among the compounds [I] of the present invention, their minimum inhibitory concentrations (MIC; μg/ml) were measured in accordance with the standard method established by the Japan Society of Chemotherapy [CHEMOTHERAPY, 29(1), 76-79 (1981)]. The results are summarized in Table 1, in which the compound numbers are as shown in examples.

[1] = tested on: S. aureus 209 P (IFO 12732); conditions: Staphylococcus aureus, IFO12732
Protocol: as §1

[2] = tested on: E. coli NIH JC-2 (IFO 12734); conditions: Escherichia coli, IFO12734
Protocol: as §1

| SMILES | MIC (P. aeruginosa (IFO 3445)) [µg/mL] | MIC [1] [µg/mL] | MIC [2] [µg/mL] |
| --- | --- | --- | --- |
| CN1CCN(c2nc3c(cc2F)c(=O)c(C(=O)O)cn3C2COC2)CC1 [Compound 61, 6-Fluoro-7-(4-methylpiperazin-1-yl)-1-(oxetan-3-yl)-1,4-dihydro-4-oxo-1,8-naphthylidine-3-carboxylic acid] | 1.56 (≈ 4.31 µM) | 3.13 (≈ 8.64 µM) | 0.39 (≈ 1.08 µM) |
| COc1c(N2CCC(N)C2)c(F)cc2c(=O)c(C(=O)O)cn(C3COC3)c12 (stereo not drawn) [Compound 76, 7-(3-Aminopyrrolidin-1-yl)-6-fluoro-8-methoxy-1-(oxetan-3-yl)-1,4-dihydro-4-oxoquinoline-3-carboxylic acid] | 1.56 (≈ 4.13 µM) | 0.2 (≈ 0.53 µM) | 0.39 (≈ 1.03 µM) |
| COc1c(N2CCC(N(C)C)C2)c(F)cc2c(=O)c(C(=O)O)cn(C3COC3)c12 (stereo not drawn) [Compound 77] | 12.5 (≈ 30.8 µM) | 1.56 (≈ 3.85 µM) | 1.56 (≈ 3.85 µM) |
| CCNCC1CCN(c2c(F)c(N)c3c(=O)c(C(=O)O)cn(C4COC4)c3c2F)C1 (stereo not drawn) [Compound 53] | 3.13 (≈ 7.41 µM) | 0.1 (≈ 0.237 µM) | 0.2 (≈ 0.473 µM) |
| O=C(O)c1cn(C2COC2)c2c(F)c(N3CCC(O)C3)c(F)cc2c1=O (stereo not drawn) [Compound 16] | 1.56 (≈ 4.26 µM) | 0.78 (≈ 2.13 µM) | 0.39 (≈ 1.06 µM) |
| CN[C@@H]1CN(c2c(F)c(N)c3c(=O)c(C(=O)O)cn(C4COC4)c3c2F)C[C@@H]1C (relative stereo) [Compound 94] | 1.56 (≈ 3.82 µM) | 0.78 (≈ 1.91 µM) | 0.2 (≈ 0.49 µM) |
| O=C(O)c1cn(C2COC2)c2cc(N3CCNCC3)c(F)cc2c1=O [Compound 36] | 3.13 (≈ 9.01 µM) | 3.13 (≈ 9.01 µM) | 0.39 (≈ 1.12 µM) |
| CN(C)NC1CCN(c2c(F)c(N)c3c(=O)c(C(=O)O)cn(C4COC4)c3c2F)C1 (stereo not drawn) [Compound 96] | 0.78 (≈ 1.84 µM) | 0.39 (≈ 0.921 µM) | 0.1 (≈ 0.236 µM) |
| CNC1CCN(c2c(F)c(N)c3c(=O)c(C(=O)O)cn(C4COC4)c3c2F)C1 (stereo not drawn) [Compound 50] | 1.56 (≈ 3.96 µM) | 0.78 (≈ 1.98 µM) | 0.39 (≈ 0.989 µM) |
| NC1CN(c2cc3c(cc2F)c(=O)c(C(=O)O)cn3C2COC2)C1 [Compound 41] | 6.25 (≈ 18.8 µM) | 12.5 (≈ 37.5 µM) | 0.78 (≈ 2.34 µM) |
| CN(C)C1CCN(c2cc3c(cc2F)c(=O)c(C(=O)O)cn3C2COC2)C1 (stereo not drawn) [Compound 39] | 6.25 (≈ 16.6 µM) | 1.56 (≈ 4.16 µM) | 0.39 (≈ 1.04 µM) |
| Nc1c(F)c(N2CCSCC2)c(F)c2c1c(=O)c(C(=O)O)cn2C1COC1 [Compound 28] | 6.25 (≈ 15.7 µM) | 0.78 (≈ 1.96 µM) | 0.78 (≈ 1.96 µM) |
| CC1CN(c2c(F)cc3c(=O)c(C(=O)O)cn(C4COC4)c3c2F)CCN1 (stereo not drawn) [Compound 13] | 1.56 (≈ 4.11 µM) | 1.56 (≈ 4.11 µM) | 0.2 (≈ 0.527 µM) |
| CNC1CCN(c2c(F)cc3c(=O)c(C(=O)O)cn(C4COC4)c3c2F)C1 (stereo not drawn) [Compound 44, 6,8-Difluoro-7-(3-methylaminopyrrolidin-1-yl)-1-(oxetan-3-yl)-1,4-dihydro-4-oxoquinoline-3-carboxylic acid] | 1.56 (≈ 4.11 µM) | 1.56 (≈ 4.11 µM) | 0.39 (≈ 1.03 µM) |
| CN(C)CC1CCN(c2cc3c(cc2F)c(=O)c(C(=O)O)cn3C2COC2)C1 (stereo not drawn) [Compound 40] | 6.25 (≈ 16 µM) | 0.78 (≈ 2 µM) | 0.39 (≈ 1 µM) |
| NC1CCN(c2nc3c(cc2F)c(=O)c(C(=O)O)cn3C2COC2)C1 (stereo not drawn) [Compound 65] | 0.39 (≈ 1.12 µM) | 1.56 (≈ 4.48 µM) | 0.2 (≈ 0.574 µM) |
| CCNC1CCN(c2c(F)cc3c(=O)c(C(=O)O)cn(C4COC4)c3c2OC)C1 (stereo not drawn) [Compound 82] | 12.5 (≈ 30.8 µM) | 0.78 (≈ 1.92 µM) | 1.56 (≈ 3.85 µM) |
| CC1CN(c2c(F)cc3c(=O)c(C(=O)O)cn(C4COC4)c3c2F)CC(C)N1 (stereo not drawn) [Compound 14] | 3.13 (≈ 7.96 µM) | 3.13 (≈ 7.96 µM) | 0.2 (≈ 0.508 µM) |
| Nc1c(F)c(N2CCOCC2)c(F)c2c1c(=O)c(C(=O)O)cn2C1COC1 [Compound 58] | 6.25 (≈ 16.4 µM) | 0.39 (≈ 1.02 µM) | 0.78 (≈ 2.05 µM) |
| N=CNC1CCN(c2c(F)c(N)c3c(=O)c(C(=O)O)cn(C4COC4)c3c2F)C1 (stereo not drawn) [Compound 110] | 6.25 (≈ 15.3 µM) | 1.56 (≈ 3.83 µM) | 0.78 (≈ 1.91 µM) |
| O=C(O)c1cn(C2COC2)c2c(F)c(N3CCC(O)CC3)c(F)cc2c1=O [Compound 15] | 6.25 (≈ 16.4 µM) | 0.39 (≈ 1.03 µM) | 0.78 (≈ 2.05 µM) |
| CO[C@@H]1CN(c2c(F)cc3c(=O)c(C(=O)O)cn(C4COC4)c3c2F)C[C@H]1N (relative stereo) [Compound 85] | 6.25 (≈ 15.8 µM) | 3.13 (≈ 7.92 µM) | 1.56 (≈ 3.95 µM) |
| C[C@@H]1CN(c2c(F)c(N)c3c(=O)c(C(=O)O)cn(C4COC4)c3c2F)C[C@H]1N (relative stereo) [Compound 101] | 0.78 (≈ 1.98 µM) | 0.2 (≈ 0.507 µM) | 0.1 (≈ 0.254 µM) |
| CC(=N)N1CCN(c2c(F)c(N)c3c(=O)c(C(=O)O)cn(C4COC4)c3c2F)CC1 [Compound 109] | 3.13 (≈ 7.43 µM) | 0.78 (≈ 1.85 µM) | 0.39 (≈ 0.925 µM) |
| Nc1c(F)c(N2CCCC2)c(F)c2c1c(=O)c(C(=O)O)cn2C1COC1 [Compound 27, 5-Amino-6,8-difluoro-1-(oxetan-3-yl)-7-(pyrrolidin-1-yl)-1,4-dihydro-4-oxoquinoline-3-carboxylic acid] | 3.13 (≈ 8.57 µM) | 0.2 (≈ 0.547 µM) | 0.39 (≈ 1.07 µM) |

| SMILES | MIC (P. aeruginosa (IFO 3445)) [µg/mL] | MIC [1] [µg/mL] | MIC [2] [µg/mL] |
| --- | --- | --- | --- |
| CNCC1CCN(c2nc3c(cc2F)c(=O)c(C(=O)O)cn3C2COC2)C1 (stereo not drawn) [Compound 70] | 6.25 (≈ 16.6 µM) | 0.39 (≈ 1.04 µM) | 1.56 (≈ 4.14 µM) |
| Nc1c(F)c(N2CCC(O)C2)c(F)c2c1c(=O)c(C(=O)O)cn2C1COC1 (stereo not drawn) [Compound 59] | 3.13 (≈ 8.21 µM) | 0.39 (≈ 1.02 µM) | 0.39 (≈ 1.02 µM) |
| CCNC1CCN(c2c(F)cc3c(=O)c(C(=O)O)cn(C4COC4)c3c2F)C1 (stereo not drawn) [Compound 45] | 3.13 (≈ 7.96 µM) | 1.56 (≈ 3.97 µM) | 0.39 (≈ 0.991 µM) |
| NCC1CCN(c2c(F)c(N)c3c(=O)c(C(=O)O)cn(C4COC4)c3c2F)C1 (stereo not drawn) [Compound 32] | 3.13 (≈ 7.94 µM) | 0.1 (≈ 0.254 µM) | 0.78 (≈ 1.98 µM) |
| Nc1c(F)c(N2CCNCC2)c(F)c2c1c(=O)c(C(=O)O)cn2C1COC1 [Compound 55] | 0.78 (≈ 2.05 µM) | 0.78 (≈ 2.05 µM) | 0.39 (≈ 1.03 µM) |
| O=C(O)c1cn(C2COC2)c2c(F)c(N3CCSCC3)c(F)cc2c1=O [Compound 7] | 3.13 (≈ 8.19 µM) | 0.39 (≈ 1.02 µM) | 0.78 (≈ 2.04 µM) |
| O=C(O)c1cn(C2COC2)c2nc(N3CCSC3)c(F)cc2c1=O [Compound 73] | 6.25 (≈ 17.8 µM) | 0.78 (≈ 2.22 µM) | 0.78 (≈ 2.22 µM) |
| C[C@H]1CN(c2c(F)cc3c(=O)c(C(=O)O)cn(C4COC4)c3c2F)C[C@H]1N (relative stereo) [Compound 102] | 0.78 (≈ 2.06 µM) | 0.39 (≈ 1.03 µM) | 0.1 (≈ 0.264 µM) |
| CO[C@@H]1CN(c2nc3c(cc2F)c(=O)c(C(=O)O)cn3C2COC2)C[C@H]1N (relative stereo) [Compound 88] | 3.13 (≈ 8.27 µM) | 6.25 (≈ 16.5 µM) | 0.78 (≈ 2.06 µM) |
| CO[C@@H]1CN(c2c(F)c(N)c3c(=O)c(C(=O)O)cn(C4COC4)c3c2F)C[C@H]1N (relative stereo) [Compound 86] | 3.13 (≈ 7.63 µM) | 1.56 (≈ 3.8 µM) | 0.39 (≈ 0.95 µM) |
| O=C(O)c1cn(C2COC2)c2c(F)c(N3CCCC3)c(F)cc2c1=O [Compound 4, 6,8-Difluoro-1-(oxetan-3-yl)-7-(pyrrolidin-1-yl)-1,4-dihydro-4-oxoquinoline-3-carboxylic acid] | 1.56 (≈ 4.45 µM) | 0.2 (≈ 0.571 µM) | 0.39 (≈ 1.11 µM) |
| CCNCC1CCN(c2c(F)cc3c(=O)c(C(=O)O)cn(C4COC4)c3c2F)C1 (stereo not drawn) [Compound 47] | 6.25 (≈ 15.3 µM) | 0.2 (≈ 0.491 µM) | 0.78 (≈ 1.91 µM) |
| CN[C@@H]1CN(c2c(F)cc3c(=O)c(C(=O)O)cn(C4COC4)c3c2F)C[C@@H]1C (relative stereo) [Compound 93] | 3.13 (≈ 7.96 µM) | 1.56 (≈ 3.97 µM) | 0.78 (≈ 1.98 µM) |
| O=C(O)c1cn(C2COC2)c2c(F)c(N3Cc4ccccc4C3)c(F)cc2c1=O [Compound 9] | 3.13 (≈ 7.86 µM) | 0.2 (≈ 0.502 µM) | 0.39 (≈ 0.979 µM) |
| O=C(O)c1cn(C2COC2)c2cc(N3CCC(O)C3)c(F)cc2c1=O (stereo not drawn) [Compound 42] | 3.13 (≈ 8.99 µM) | 1.56 (≈ 4.48 µM) | 0.78 (≈ 2.24 µM) |
| CN1CCN(c2cc3c(cc2F)c(=O)c(C(=O)O)cn3C2COC2)CC1 [Compound 35, 6-Fluoro-7-(4-methylpiperazin-1-yl)-1-(oxetan-3-yl)-1,4-dihydro-4-oxoquinoline-3-carboxylic acid] | 3.13 (≈ 8.66 µM) | 1.56 (≈ 4.32 µM) | 0.2 (≈ 0.553 µM) |
| Nc1c(F)c(N2CCC(N)C2)c(F)c2c1c(=O)c(C(=O)O)cn2C1COC1 (stereo not drawn) [Compound 31] | 0.78 (≈ 2.05 µM) | 0.39 (≈ 1.03 µM) | 0.2 (≈ 0.526 µM) |
| CCNC1CCN(c2nc3c(cc2F)c(=O)c(C(=O)O)cn3C2COC2)C1 (stereo not drawn) [Compound 69] | 1.56 (≈ 4.14 µM) | 3.13 (≈ 8.32 µM) | 0.39 (≈ 1.04 µM) |
| NC1CN(c2c(F)cc3c(=O)c(C(=O)O)cn(C4COC4)c3c2F)C1 [Compound 48] | 3.13 (≈ 8.91 µM) | 1.56 (≈ 4.44 µM) | 0.39 (≈ 1.11 µM) |
| CO[C@H]1CN(c2c(F)cc3c(=O)c(C(=O)O)cn(C4COC4)c3c2F)C[C@H]1N (relative stereo) [Compound 89] | 3.13 (≈ 7.92 µM) | 1.56 (≈ 3.95 µM) | 0.78 (≈ 1.97 µM) |
| NCC1CN(c2c(F)cc3c(=O)c(C(=O)O)cn(C4COC4)c3c2F)CCO1 (stereo not drawn) [Compound 22] | > 25 | 0.78 (≈ 1.97 µM) | 6.25 (≈ 15.8 µM) |
| Nc1c(F)c(N2CCN(O)CC2)c(F)c2c1c(=O)c(C(=O)O)cn2C1COC1 [Compound 107] | 6.25 (≈ 15.8 µM) | 3.13 (≈ 7.9 µM) | 0.78 (≈ 1.97 µM) |
| O=C(O)c1cn(C2COC2)c2c(F)c(N3CC(O)C3)c(F)cc2c1=O [Compound 17] | 6.25 (≈ 17.7 µM) | 3.13 (≈ 8.88 µM) | 0.78 (≈ 2.21 µM) |
| CN[C@@H]1CN(c2c(F)c(N)c3c(=O)c(C(=O)O)cn(C4COC4)c3c2F)C[C@H]1C (relative stereo) [Compound 92] | 1.56 (≈ 3.82 µM) | 0.39 (≈ 0.955 µM) | 0.1 (≈ 0.245 µM) |

— patent US5407932A, “Quinolone derivatives and antibacterial agents containing the same” (Wakunaga Seiyaku Kabushiki Kaisha, priority 1989, dated 1995)
